In publication PMC8151276, “An Integrated Approach toward NanoBRET Tracers for Analysis of GPCR Ligand Engagement” (Molecules, 2021):

Target: T1, NPFFR1 (Homo sapiens, UniProt Q9GZQ6)
T1 construct: purchased Promega (in-house HiBiT-GPCR construct library, NanoBRET)
Experiment: NanoBRET screen HiBiT-NPFFR1 in HEK293
Format: binding
Method: Each tracer candidate was screened across the entire library of HiBiT-GPCR constructs using NanoBRET as the detection modality. As depicted in Figure 4A, the specificity of interactions was evaluated through decrease in BRET due to competitive displacement of a bound tracer by excess parental compound. Each tracer was analyzed for binding to each HiBiT-GPCR fusion in the absence and in the presence of competing parental compound. Briefly, HEK293 cells were transfected with HiBiT-GPCR constructs diluted into promoterless DNA to reduce expression and maximize translocation to the cell surface. Each tracer candidate was then screened at concentrations of 1 μM and 0.1 μM across cells expressing these fusions. Cells were treated for 1.5 h with tracer either alone or in the presence of 20 μM competing parental compound (i.e., control). BRET was measured upon addition of purified LgBiT and subsequent complementation with HiBiT genetically fused to a GPCR. The specificity of interactions was assessed through a decrease in BRET signal due to competitive displacement of the bound tracer. To further gauge the robustness of these interactions, the fold response over the control (i.e., BRETtracer/BRETcontrol) was calculated. We chose a 1.5-fold response, which translates to ≥7-fold signal over noise as the minimal threshold required to score an interaction as positive.
HiBiT-GPCR DNA constructs were diluted in 10 mM Tris pH 8 to a final concentration of 0.01 μg/μL, arrayed in 96-well plates and stored at −20 °C. For transfection, HEK293 cells were suspended in Opti-MEM (without phenol red) supplemented with 2% fetal bovine serum (Seradigm) and 100 units/mL penicillin–streptomycin (Gibco) at a final concentration of 220,000 cells/mL and dispensed into white 96-well plates at 90 μL/well. Subsequent transfections and screens were carried using an Agilent Bravo Automated Liquid Handling Platform. First, the 96-well HiBiT DNA arrays were diluted 25-fold in Opti-MEM (without serum or phenol red) to a final concentration of 0.0004 μg/μL and 20 μL of the diluted DNAs were transferred into new 96-well plates. Next, promoterless carrier DNA (1 μg/μL) was diluted 25-fold (0.04 μg/μL) and then dispensed into the diluted arrays at 20 μL/well. Following brief mixing, Viafect transfection reagent (Promega) diluted 16-fold into Opti-MEM was dispensed into the plates at 40 μL/well. After mixing by pipetting, plates were incubated for 10 min on the pipetting station deck. The DNA-transfection reagent complexes were then added to plates containing cells. To facilitate the screen, 10 μL of DNA-transfection reagent complexes were added in duplicates to the top 4 and bottom 4 rows, resulting in two identical 48-well arrays per plate. Plates with transfected cells were incubated for 18–20 h at 37 °C/5% CO2. A screen of each tracer across the entire library using two different concentrations requires duplicate plates of transfected cells. Depending on the number of tracers being screened, transfections can be scaled up using the same ratios. The next day, for each tracer, four 20× screening solutions in tracer dilution buffer (Promega) were prepared: two duplicates at final concentration of 20 μM and two duplicates at a final concentration of 2 μM. […] The four resulting solutions were diluted 4-fold in Opti-MEM without serum or phenol red to generate 5× solutions (5 µM and 0.5 µM tracer +/− 100 μM competing compound). To screen the library, a BioTek MultiFlo FX liquid dispenser was used to dispense 22.5 µL of tracer solution to the top 4 rows and 22.5 µL tracer + competing compound solution to the 4 bottom rows. Plates were briefly mixed on an orbital shaker and incubated for 1.5 h at room temperature. […] Plates were briefly mixed on an orbital shaker and incubated for 15 min to allow complementation.

T1 sequence (Q9GZQ6 whole entry): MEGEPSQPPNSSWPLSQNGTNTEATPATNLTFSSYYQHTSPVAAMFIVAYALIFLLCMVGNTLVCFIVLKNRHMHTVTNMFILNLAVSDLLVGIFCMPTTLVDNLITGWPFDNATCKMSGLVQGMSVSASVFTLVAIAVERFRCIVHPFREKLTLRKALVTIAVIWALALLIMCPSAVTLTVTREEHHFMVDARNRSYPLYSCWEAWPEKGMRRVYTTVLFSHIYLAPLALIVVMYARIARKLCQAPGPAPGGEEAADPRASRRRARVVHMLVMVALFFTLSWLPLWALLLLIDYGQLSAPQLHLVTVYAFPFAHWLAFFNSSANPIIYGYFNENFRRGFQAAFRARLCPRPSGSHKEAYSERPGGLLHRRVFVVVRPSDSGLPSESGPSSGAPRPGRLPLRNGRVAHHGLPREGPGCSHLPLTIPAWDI

Row | SMILES | NanoBRET Fold Response (NPFFR1, tracer 0.1μM) | NanoBRET Fold Response (NPFFR1, tracer 1μM) | also measured
1 | CCOC(=O)c1cc(C#N)c(N2CCC(C(=O)NS(=O)(=O)Cc3ccccc3/C=C/C(=O)NCCNC(=O)CCc3ccc4n3[B-](F)(F)[N+]3=C(c5ccc[nH]5)C=CC3=C4)CC2)nc1C [AZD1283-1-NB590] | – | – | NanoBRET Fold Response (NPFFR1, 0.1μM): 1.02; NanoBRET Fold Response (NPFFR1, 1μM): 0.99
2 | N#CN=C(NCCCOc1cccc(CN2CCCCC2)c1)NCCNC(=O)CCOCCOCCOCCOCCNC(=O)CCc1ccc2n1[B-](F)(F)[N+]1=C(c3ccc[nH]3)C=CC1=C2 [Aminopotentidine-2-NB590] | 0.96 | 1.02 | –
3 | CN(C)CCC=C1c2ccccc2CCc2ccc(C(=O)NCCNC(=O)CCOCCOCCOCCOCCNC(=O)CCc3ccc4n3[B-](F)(F)[N+]3=C(c5ccc[nH]5)C=CC3=C4)cc21 [Amitriptyline-b-2-NB590] | – | – | NanoBRET Fold Response (tracer at 0.1μM): 0.98
4 | COc1ccc2c(n1)c(CCNC(C)=O)cn2CCNC(=O)CCc1ccc2n1[B-](F)(F)[N+]1=C(c3ccc[nH]3)C=CC1=C2 [Azamelatonin-1-NB590] | – | – | NanoBRET Fold Response (0.1μM tracer): 0.99; NanoBRET Fold Response (1μM tracer): 0.91
5 | COc1ccc2[nH]c(-c3ccc(CNC(=O)CCOCCOCCOCCOCCNC(=O)CCc4ccc5n4[B-](F)(F)[N+]4=C(c6ccc[nH]6)C=CC4=C5)cc3)c(CCNC(C)=O)c2n1 [AzomelatoninICO9-2-NB590] | – | – | NanoBRET Fold Response (1μM tracer): 1.01
6 | O=C(CCOCCOCCOCCOCCNC(=O)CCc1ccc2n1[B-](F)(F)[N+]1=C(c3ccc[nH]3)C=CC1=C2)NCCCN1CCN(C2=Nc3cc(Cl)ccc3Nc3ccccc32)CC1 [Clozapine-a-2-NB590] | – | – | NanoBRET Fold Response (NPFFR1, 1μM tracer): 0.98
7 | CN1CCN(C2=Nc3cc(Cl)ccc3Nc3ccc(CNC(=O)CCOCCOCCOCCOCCNC(=O)CCc4ccc5n4[B-](F)(F)[N+]4=C(c6ccc[nH]6)C=CC4=C5)cc32)CC1 [Clozapine-b-2-NB590] | – | – | NanoBRET Fold Response (NPFFR1, 0.1μM tracer): 1.00; NanoBRET Fold Response (NPFFR1, 1μM tracer): 1.02
8 | CN1CCN(C2=Nc3cc(Cl)ccc3N(CC(=O)NCCOCCOCCOCCOCCNC(=O)CCc3ccc4n3[B-](F)(F)[N+]3=C(c5ccc[nH]5)C=CC3=C4)c3ccccc32)CC1 [Clozapine-c-2-NB590] | – | – | NanoBRET Fold Response (NPFFR1, 0.1μM tracer): 1.02; NanoBRET Fold Response (NPFFR1, 1μM tracer): 1.00
9 | O=C(CCOCCOCCOCCOCCNC(=O)CCc1ccc2n1[B-](F)(F)[N+]1=C(c3ccc[nH]3)C=CC1=C2)NCCCN1CCN(C2=Nc3ccccc3Oc3ccc(Cl)cc32)CC1 [Loxapine-a-2-NB590] | 0.98 | 1.00 | –
10 | COc1ccccc1N1CCN(CCCCN2C(=O)c3ccc(CNC(=O)CCOCCOCCOCCOCCNC(=O)CCc4ccc5n4[B-](F)(F)[N+]4=C(c6ccc[nH]6)C=CC4=C5)cc3C2=O)CC1 [NAN-190-2-NB590] | 0.95 | 1.02 | –
11 | COc1ccccc1N1CCN(CCCCN2C(=O)c3ccc(CNC(=O)CCOCCNC(=O)c4ccc(CNC(=O)CCc5ccc6n5[B-](F)(F)[N+]5=C(c7ccc[nH]7)C=CC5=C6)cc4)cc3C2=O)CC1 [NAN-190-3-NB590] | 1.06 | 0.96 | –
12 | O=C(CCc1ccc2n1[B-](F)(F)[N+]1=C(c3ccc[nH]3)C=CC1=C2)NCc1ccc(C(=O)NCCOCCC(=O)N[C@@H]2CC[C@@]3(O)[C@H]4Cc5ccc(O)c6c5[C@@]3(CCN4CC3CC3)[C@H]2O6)cc1 [Naltrexone-3-NB590] | 0.94 | 1.15 | –
13 | Cc1cc2c(s1)Nc1ccccc1N=C2N1CCN(CCCNC(=O)CCOCCOCCOCCOCCNC(=O)CCc2ccc3n2[B-](F)(F)[N+]2=C(c4ccc[nH]4)C=CC2=C3)CC1 [Olanzapine-a-2-NB590] | 0.96 | – | –
14 | O=C(CCc1ccc2n1[B-](F)(F)[N+]1=C(c3ccc[nH]3)C=CC1=C2)NCc1ccc(C(=O)NCCOCCOCCNCC(O)COc2cccc3ccccc23)cc1 (stereo not drawn) [Propranolol-3-NB590] | – | – | NanoBRET Fold Response (NPFFR1, 0.1μM): 1.01; NanoBRET Fold Response (NPFFR1, 1μM): 0.99
15 | O=C(CCc1ccc2n1[B-](F)(F)[N+]1=C(c3ccc[nH]3)C=CC1=C2)NCCOCCOCCNC(=O)OCCOCCN1CCN(C2=Nc3ccccc3Sc3ccccc32)CC1 [Quetiapine-a-2-NB590] | 0.99 | 1.00 | –
16 | Cc1nc2n(c(=O)c1CCN1CCC(c3noc4cc(F)ccc34)CC1)CCCC2OC(=O)NCCOCCOCCOCCOCCNC(=O)CCc1ccc2n1[B-](F)(F)[N+]1=C(c3ccc[nH]3)C=CC1=C2 (stereo not drawn) [Risperidone-2-NB590] | 0.97 | 0.95 | –
17 | CC(C)N(CC[C@H](c1ccccc1)c1cc(CCNC(=O)CCOCCOCCOCCOCCNC(=O)CCc2ccc3n2[B-](F)(F)[N+]2=C(c4ccc[nH]4)C=CC2=C3)ccc1O)C(C)C [Tolterodine-2-NB590] | 1.19 | – | –
18 | CC(C)N(CC[C@H](c1ccccc1)c1cc(CCNC(=O)c2ccc(CNC(=O)CCc3ccc4n3[B-](F)(F)[N+]3=C(c5ccc[nH]5)C=CC3=C4)cc2)ccc1O)C(C)C [Tolterodine-BZ-NB590] | 0.96 | 1.02 | –
19 | CCCn1c(=O)c2[nH]c(-c3ccc(OCC(=O)NCCNC(=O)CCOCCNC(=O)c4ccc(CNC(=O)CCc5ccc6n5[B-](F)(F)[N+]5=C(c7ccc[nH]7)C=CC5=C6)cc4)cc3)nc2n(CCC)c1=O [XAC-3-NB590] | 0.99 | 1.01 | –
